Measurements taken from patent publication US20030206968A1, “Fungicidal mixtures” (priority 1999, published 2003).

How the values were obtained:
Assay type in all cases: in vivo
Septoria tritici = assay: Field test, Septoria tritici on wheat
Experimental: (§1) The trials are carried out under greenhouse (Examples 1 to 32) or field conditions (Examples 33 to 40) in residual or curative applications. The fungicides are applied in single treatments, or in a combination comprising an azolopyrimidine of formula I and a compound selected from the classes (A), (B) and (C) as defined above. The compounds are applied in form of an aqueous spray mix obtained from a concentrated formulation or the technical material.
(§2) For the field study formulated Azolopyrimidine A, B or C and formulated compounds from the classes (A), (B) and (C) were used.
(§3) Assessments of the diseases took place at the indicated day after the application of the compounds. Per cent infected leaf area infected was evaluated. The efficacy of the compounds/compounds mixtures to control the diseases was calculated by using the formula given above under item 4: […]
(§4) Synergy was calculated using the % disease control values of specific treatments for the two COLBY formula given hereinabove
(§5) The compounds are applied according to good agricultural practice in the form of an aqueous spray mix obtained from a concentrated formulation or the technical material at a rate of 400 l/ha. The disease control is evaluated according to the formula given for the greenhouse tests.
Fungicidal efficacy of the mixture of Azolopyrimidine C+metconazole in the field against Septoria tritici on wheat The tank mix was obtained from an EC formulation containing 150 g Azolopyrimidine C per liter and a SL formulation containing 60 g metconazole per liter. The observed and expected efficacies with different rates are given in Table XXXIVa (19 days after application) and Table XXXIVb (25 days after application):
Fungicidal efficacy of the mixture of (S)-Azolopyrimidine C+kresoxim methyl in the field against Septoria tritici on wheat The tank mix was obtained from a SC formulation containing 100 g (S)-Azolopyrimidine C per liter and a WG formulation containing 500 g kresoxim methyl per kg. The observed and expected efficacies with different rates are given in Tables XXXVa (7 days after application), XXXVb (22 days after application), XXXVc (34 days after application), and XXXVd (41 days after application):
Fungicidal efficacy of the mixture of Azolopyrimidine A and different cereal fungicides the field against Septoria tritici on wheat 15 days after application The tank mix was obtained from an SC formulation containing 100 g Azolopyrimidine A per liter and commercially available formulations of metconazole, epoxiconazole or propiconazole, respectively.

Blumeria graminis [1] = assay: Field test, Blumeria graminis on wheat; details: 15 days after application
Experimental: as §1, §2, §3, §4, §5
Fungicidal efficacy of the mixture of (S)-Azolopyrimidine C+cyproconazole in the field against Blumeria graminis on wheat 17 days after application The tank mix was obtained from a SC formulation containing 100 g (S)-Azolopyrimidine C per liter and an EC formulation containing 60 g cyproconazole per liter.
Fungicidal efficacy of the mixture of (S)-Azolopyrimidine C+azoxystrobin in the field against Blumeria graminis on wheat 17 days after application The tank mix was obtained from a SC formulation containing 100 g (S)-Azolopyrimidine C per liter and a SC formulation containing 250 g azoxystrobin per kg.
Fungicidal efficacy of the mixture of Azolopyrimidine A and different cereal fungicides in the field against Blumeria graminis on wheat 15 days after application The tank mix was obtained from an SC formulation containing 100 g Azolopyrimidine A per liter and commercially available formulations of metconazole, epoxiconazole or kresoxim methyl, respectively.

Puccinia recondita [2] = assay: Field test, Puccinia recondita on wheat; details: 50 days after application
Experimental: as §1, §2, §3, §4, §5
Fungicidal efficacy of the mixture of Azolopyrimidine A and different cereal fungicides in the field against Puccinia recondita on wheat 50 days after application The tank mix was obtained from an SC formulation containing 100 g Azolopyrimidine A per liter and commercially available formulations of metconazole, epoxiconazole, propiconazole or kresoxim methyl, respectively.

Leptosphaeria nodorum = assay: Greenhouse, Leptosphaeria nodorum on wheat, 3 day residual
Experimental: as §1
(§6) 1. Seed is planted in 6 cm diameter plastic pots and maintained in the greenhouse.
(§7) 2. When the primary leaf is fully expanded in the case of cereals or several leaves are present in the case of dicots, formulated test compounds are sprayed with a three nozzle overhead fungicide sprayer to near run-off. Alternatively, a single nozzle overhead track sprayer is used for application of the compounds to cereals at a rate of 200 l/ha. Plants are then allowed to air-dry.
(§8) 3. Inoculation precedes treatment in the case of curative evaluations and follows treatment in case of residual evaluations. For inoculation of powdery mildew disease, plants are set up on greenhouse benches with bottom watering mats and inoculated by dusting them with conidia from infected plants. Between inoculation and treatment for curative evaluations and between treatment and inoculation for residual evaluations, plants are maintained in the greenhouse with bottom watering.
(§9) For inoculation of non-powdery mildew diseases, an aqueous spore suspension of the pathogen is applied to the plant and the plants are kept 1-2 days in a moist infection chamber before being returned to the greenhouse where they are maintained by bottom watering.
(§10) 4. Disease on the foliage as percent leaf area with disease symptoms/signs is evaluated about 7 days after inoculation. In the case of wheat, the tips and bases of the leaves are excluded from the evaluation. [formula]
(§11) 1. Technical compounds are formulated in a solvent/surfactant system consisting of 5% acetone and 0.05% Tween 20 in deionized water. Compounds are dissolved in acetone prior to addition of the water; the Tween 20 can be added through either the acetone or the water. Dilutions are made using the solvent/surfactant system. Formulated compounds are prepared using deionized water.
(§12) 2. Two kinds of controls are included: Plants treated with the solvent/surfactant solution and inoculated (Solvent Blank). Untreated plants which are inoculated (Inoculated Control).
as §3, §4
Fungicidal efficacy of the mixture of Azolopyrimidine A+fenpropimorph (3 day residual) against Leptosphaeria nodorum on wheat The tank mix was obtained from technical material of Azolopyrimidine A and an EC formulation containing 750 g fenpropimorph per liter.
Fungicidal efficacy of the mixture of Azolopyrimidine A+tebuconazole (3 day residual) against Leptosphaeria nodorum on wheat The tank mix was obtained from technical material of Azolopyrimidine A and an EC formulation containing 250 g tebuconazole per liter.

Blumeria graminis [3] = assay: Greenhouse, Blumeria graminis on wheat, 2 day residual; details: Example 3
Experimental: as §1, §6, §7, §8, §10
1. […]
as §3
Synergy was calculated using the % disease control values of specific treatments for the two COLBY formula given hereinabove […]

Botrytis cinerea = assay: Apple fruit Botrytis test, Botrytis cinerea on apple fruits, 3 day residual
Experimental: 1. Apples (Malus X domestica Borkh.) variety Golden Delicious are disinfected by washing them briefly in 70% ethanol. After drying the apples are marked with four short equal-distant lines indicating the positions to be wounded.
2. Corresponding with the marks, four holes are poked around the apple equator with a pipette tip. 10 μl of the treatment solution are pipetted into each hole.
3. Three hours after application, 10 μl of a conidial suspension of Botrytis cinerea are pipetted into each. For incubation, the treated/inoculated apples are set up for five days.
4. Disease occurs as rotten apple tissue surrounding the inoculated wounds. The diameter of the rotten zone around each wound is measured.
1. Technical compounds are formulated in a solvent system consisting of 5% acetone and 0.05% Tween 20 in deionized water. Compounds are dissolved in acetone prior to dilution with water. Formulated compounds are prepared using deionized water.
2. Three kinds of controls are included:
Assessments of the diseases took place at the indicated day after the application of the compounds. Per cent infected leaf area infected was evaluated. The efficacy of the compounds/compounds mixtures to control the diseases was calculated by using the formula: [formula]
as §4
Fungicidal efficacy of the mixture of Azolopyrimidine A+vinclozolin (3 day residual) against Botrytis cinerea on apple fruits The tank mix was obtained from technical material of Azolopyrimidine A and a WG formulation containing 500 g vinclozolin per kg.
Fungicidal efficacy of the mixture of Azolopyrimidine A+cyprodinil (3 day residual) against Botrytis cinerea on apple fruits The tank mix was obtained from technical material of Azolopyrimidine A and a WG formulation containing 750 g cyprodinil per kg.
Fungicidal efficacy of the mixture of Azolopyrimidine A+benomyl (3 day residual) against Botrytis cinerea on apple fruits The tank mix was obtained from technical material of Azolopyrimidine A and a WP formulation containing 500 g benomyl per kg.

Erysiphe cichoracearum = assay: Greenhouse, Erysiphe cichoracearum on cucumbers, 1 day residual; details: Example 24
Experimental: as §1, §6, §7, §8, §10, §11, §12, §3, §4
Fungicidal efficacy of the mixture of Azolopyrimidine C+triforine (1 day residual) against Erysiphe cichoracearum on cucumbers
the tank mix was obtained from a SC formulation containing 100 g of Azolopyrimidine C per liter and an DC formulation containing and 190 g of triforine per liter.
Fungicidal efficacy of the mixture of Azolopyrimidine C+cyprodinil (1 day residual) against Erysiphe cichoracearum on cucumbers The tank mix was obtained from a SC formulation containing 100 g of Azolopyrimidine C per liter and a WG formulation containing and 750 g of cyprodinil per kg.

Alternaria solani = assay: Greenhouse, Alternaria solani on tomatoes, 1 day residual; details: Example 25; rate 16 g/ha
Experimental: as §1, §6, §7, §8, §9, §10, §11, §12, §3, §4
Fungicidal efficacy of the mixture of Azolopyrimidine C and different fungicides (1 day residual) against Alternaria solani on tomatoes The tank mix was obtained from an SC formulation containing 100 g Azolopyrimidine A per liter and WP formulations of dithianon (750 g/kg), captan (500 g/kg), cyprodinil (750 g/kg), mancozeb (800 g/kg), or a SC formulation of chlorothalonil (500 g/l), or a FS formulation of fenpiclonil (400 g/l), spectively.

Puccinia recondita [4] = assay: Greenhouse, Puccinia recondita on wheat, 1 day curative, plants sprayed twice, once with each compound; details: Example 12
Experimental: as §1, §6, §7, §8, §9, §10, §11, §12, §3, §4
Fungicidal efficacy of the mixture of Azolopyrimidine C+kresoxim methyl (1 day curative) against Puccinia recondita on wheat Plants sprayed twice, once with each compound. The tank mixes were obtained from a SC formulation containing 100 g Azolopyrimidine C per liter and a WG containing 500 g kresoxim methyl per kg.

[5] = Azolopyrimidine A 125 g/ha alone

Fc1ccc([C@]2(Cn3cncn3)O[C@H]2c2ccccc2Cl)cc1 (racemic) [epoxiconazole]
Observed Efficacy (Septoria tritici; epoxiconazole 63 g/ha alone, 15 days after application, field, wheat): 93
Observed Efficacy (Blumeria graminis [1]; epoxiconazole 63 g/ha alone): 40
Observed Efficacy (Puccinia recondita [2]; epoxiconazole 63 g/ha alone): 95

CC1CCN(c2c(-c3c(F)cccc3Cl)c(Cl)nc3ncnn23)CC1 [Azolopyrimidine A, 5-chloro-6-(2-chloro-6-fluorophenyl)-7-(4-methylpiperid-1-yl)-[1,2,4]triazolo[1,5-a]pyrimidine]
Observed Efficacy (Leptosphaeria nodorum; Example 1, dose rate 10 ppm): 35%
Observed Efficacy (Leptosphaeria nodorum; Example 1, dose rate 100 ppm): 40%
Observed Efficacy (Leptosphaeria nodorum; Example 2, dose rate 100 ppm): 40%
Observed Efficacy (Blumeria graminis [3]; dose rate 10 ppm): 14%
Observed Efficacy (Botrytis cinerea; Example 4, dose rate 1 ppm): 0%
Observed Efficacy (Botrytis cinerea; Example 4, dose rate 10 ppm): 33%
Observed Efficacy (Botrytis cinerea; Example 5, dose rate 1 ppm): 0%
Observed Efficacy (Botrytis cinerea; Example 5, dose rate 10 ppm): 33%
Observed Efficacy (Botrytis cinerea; Example 6, dose rate 1 ppm): 0%
Observed Efficacy (Botrytis cinerea; Example 6, dose rate 10 ppm): 0%
Observed Efficacy (Botrytis cinerea; Example 7, dose rate 1 ppm): 0%
Observed Efficacy (Botrytis cinerea; Example 7, dose rate 10 ppm): 25%
Observed Efficacy (Septoria tritici; Azolopyrimidine A 125 g/ha alone, 15 days after application, field, wheat): 63
Observed Efficacy (Blumeria graminis [1]; [5]): 22
Observed Efficacy (Puccinia recondita [2]; [5]): 0

Cc1cc(C2CC2)nc(Nc2ccccc2)n1 [cyprodinil]
Observed Efficacy (Botrytis cinerea; Example 5, dose rate 0.1 ppm): 2%
Observed Efficacy (Botrytis cinerea; Example 5, dose rate 1 ppm): 46%
Observed Efficacy (Erysiphe cichoracearum; dose rate 4 ppm): 0%
Observed Efficacy (Erysiphe cichoracearum; dose rate 16 ppm): 29%
Observed Efficacy (Alternaria solani): 13%

CO/N=C(/C(=O)OC)c1ccccc1COc1ccccc1C [kresoxim methyl]
Observed Efficacy (Puccinia recondita [4]; dose rate 25 g/ha): 0%
Observed Efficacy (Puccinia recondita [4]; dose rate 50 g/ha): 1%
Observed Efficacy (Puccinia recondita [4]; dose rate 100 g/ha): 0%
Observed Efficacy (Puccinia recondita [4]; dose rate 200 g/ha): 1%
Observed Efficacy (Puccinia recondita [4]; dose rate 400 g/ha): 5%
Observed Efficacy (Septoria tritici; Example 35, 7 days after application, dose rate 100 g/ha): 40%
Observed Efficacy (Septoria tritici; Example 35, 22 days after application, dose rate 100 g/ha): 64%
Observed Efficacy (Septoria tritici; Example 35, 34 days after application, dose rate 50 g/ha): 44%
Observed Efficacy (Septoria tritici; Example 35, 34 days after application, dose rate 100 g/ha): 59%
Observed Efficacy (Septoria tritici; kresoxim methyl 100 g/ha alone, 41 days after application, field, wheat): 92
Observed Efficacy (Blumeria graminis [1]; kresoxim methyl 100 g/ha alone): 85
Observed Efficacy (Puccinia recondita [2]; kresoxim methyl 100 g/ha alone): 0

CCCC1COC(Cn2cncn2)(c2ccc(Cl)cc2Cl)O1 (centres unmarked) [propiconazole]
Observed Efficacy (Septoria tritici; propiconazole 63 g/ha alone, 15 days after application, field, wheat): 72
Observed Efficacy (Puccinia recondita [2]; propiconazole 63 g/ha alone): 49

CC(C)(C)C(O)(CCc1ccc(Cl)cc1)Cn1cncn1 (centres unmarked) [tebuconazole]
Observed Efficacy (Leptosphaeria nodorum; Example 2, dose rate 0.02 ppm): 25%
Observed Efficacy (Leptosphaeria nodorum; Example 2, dose rate 0.2 ppm): 19%
Observed Efficacy (Blumeria graminis [3]; dose rate 0.02 ppm): 2%
Observed Efficacy (Blumeria graminis [3]; dose rate 0.2 ppm): 9%
